Measurements taken from patent US20240115549A1, “TREATMENT OF MENTAL DISORDERS” (GH Research Ireland Limited, priority 2022, published 2024).
“Also recorded” adds a separate entry of the source.

How the values were obtained:
human hepatocytes [1] = test: Metabolism of 5-MeO-DMT in human hepatocytes in suspension; type: in vitro ADME; conditions: 5-MeO-DMT free base 10 μM incubated up to 120 minutes
Method: All samples were stored at −80° C. (nominal) prior to analysis.
Appropriate blank and control samples were also analysed. […] (nominal).

human hepatocytes [2] = test: Metabolic stability in Hprel human hepatocyte co-culture; type: in vitro ADME; conditions: for Half-life / In vitro intrinsic clearance: human hepatocytes, 1 μM; for Predicted hepatic extraction ratio: human, Hprel HumanPool human hepatocyte co-culture; for Disappearance with stromal cell controls: stromal cells
Method: The incubations were performed using 1 and 10 μM initial concentrations and sampling at 0, 1, 2, 4, 8, 24, 48, and 72 hours (h) time points. The samples were analysed using UPLC/QE-orbitrap-MS.
The remaining LC/MS peak areas detected for test compounds after each incubation time point with Hprel co-culture assay, relative to corresponding 0 min incubation samples, are shown in the tables below.

human plasma protein = test: Plasma binding of 5-MIAA; type: in vitro ADME
Method: Binding to human plasma protein was determined. Reported are the unbound fraction (fu) for three replicates as well as the mean unbound fraction, the standard deviation and the mean % recovery (Table 8).

[3] = LC-MS/MS of 5-MeO-DMT, bufotenine and 5-MIAA in breastmilk, serum and urine of a treated PPD patient; infant dose estimates
[4] = 5 kg infant, three feeds of 250 ml
[5] = 1.0 hrs after last dose, second PPD patient, inhaled 5-MeO-DMT, LC-MS/MS
[6] = 2.5 hrs after last dose, second PPD patient, inhaled 5-MeO-DMT, LC-MS/MS
[7] = 8.5 hrs after last dose, second PPD patient, inhaled 5-MeO-DMT, LC-MS/MS
[8] = 120.0 hrs after last dose, second PPD patient, inhaled 5-MeO-DMT, LC-MS/MS
[9] = timepoint −24.0 hrs (pre-dosing), second PPD patient, inhaled 5-MeO-DMT 6 mg then 12 mg, LC-MS/MS
[10] = serum, 1.0 hrs after last dose, second PPD patient, inhaled 5-MeO-DMT, LC-MS/MS
[11] = urine, 2.5 hrs after last dose, second PPD patient, inhaled 5-MeO-DMT, LC-MS/MS

COc1ccc2[nH]cc(CC(=O)O)c2c1 [5-MIAA, 5-methoxyindole-3-acetic acid]
Relative Proportion of compounds identified (human hepatocytes [1]): about 60%
Relative Proportion of compounds identified (human hepatocytes [1]; listed as 5-Methoxyindole acetic acid (5-MIAA)): 61%
Relative LC/MS peak area (human hepatocytes [2]; 1 μM Hepatocytes, 1 h): 98%
Relative LC/MS peak area (human hepatocytes [2]; 1 μM Hepatocytes, 2 h): 100%
Relative LC/MS peak area (human hepatocytes [2]; 1 μM Hepatocytes, 4 h): 99%
Relative LC/MS peak area (human hepatocytes [2]; 1 μM Hepatocytes, 8 h): 95%
Relative LC/MS peak area (human hepatocytes [2]; 1 μM Hepatocytes, 24 h): 99%
Relative LC/MS peak area (human hepatocytes [2]; 1 μM Hepatocytes, 48 h): 88%
Relative LC/MS peak area (human hepatocytes [2]; 1 μM Hepatocytes, 72 h): 82%
Relative LC/MS peak area (human hepatocytes [2]; 1 μM Stromal cells, 4 h): 103%
Relative LC/MS peak area (human hepatocytes [2]; 1 μM Stromal cells, 8 h): 107%
Relative LC/MS peak area (human hepatocytes [2]; 1 μM Stromal cells, 24 h): 108%
Relative LC/MS peak area (human hepatocytes [2]; 1 μM Stromal cells, 48 h): 111%
Relative LC/MS peak area (human hepatocytes [2]; 1 μM Stromal cells, 72 h): 135%
Relative LC/MS peak area (human hepatocytes [2]; 10 μM Hepatocytes, 1 h): 97%
Relative LC/MS peak area (human hepatocytes [2]; 10 μM Hepatocytes, 2 h): 100%
Relative LC/MS peak area (human hepatocytes [2]; 10 μM Hepatocytes, 4 h): 103%
Relative LC/MS peak area (human hepatocytes [2]; 10 μM Hepatocytes, 8 h): 96%
Relative LC/MS peak area (human hepatocytes [2]; 10 μM Hepatocytes, 24 h): 96%
Relative LC/MS peak area (human hepatocytes [2]; 10 μM Hepatocytes, 48 h): 86%
Relative LC/MS peak area (human hepatocytes [2]; 10 μM Hepatocytes, 72 h): 75%
Relative LC/MS peak area (human hepatocytes [2]; 10 μM Stromal cells, 4 h): 101%
Relative LC/MS peak area (human hepatocytes [2]; 10 μM Stromal cells, 8 h): 106%
Relative LC/MS peak area (human hepatocytes [2]; 10 μM Stromal cells, 24 h): 97%
Relative LC/MS peak area (human hepatocytes [2]; 10 μM Stromal cells, 48 h): 103%
Relative LC/MS peak area (human hepatocytes [2]; 10 μM Stromal cells, 72 h): 115%
Remaining abundance after 72 h (human hepatocytes [2]; hepatocytes, 1 and 10 μM): 75-82%
Half-life (human hepatocytes [2]): 15 400 min
In vitro intrinsic clearance (human hepatocytes [2]): 0.15 μl/min/million cells
Predicted hepatic extraction ratio (human hepatocytes [2]): 2%
Metabolic turnover (human hepatocytes [2]; in the presence of hepatocytes): low metabolic turnover
Disappearance with stromal cell controls (human hepatocytes [2]): no disappearance
Mean % Recovery (human plasma protein): 81.4%
Mean fu (human plasma protein): 0.502
Plasma binding (mean fraction unbound) (human plasma protein): ~50%
Unbound fraction (fu), Replicate 1 (human plasma protein): 0.499
Unbound fraction (fu), Replicate 2 (human plasma protein): 0.462
Unbound fraction (fu), Replicate 3 (human plasma protein): 0.544
DID per kg infant weight [3, 4]: 0.001377 mg/kg/day
Total exposure of the infant (DID) [3, 4]: 0.006886 mg/day
Concentration in breast milk ([3]; 1 hour after last dose (6 mg + 12 mg 5-MeO-DMT)): 13.9452 ng/mL
Peak urine concentration relative to serum ([3]; 2.5 hours): approx. 127 times
Concentration in breast milk ([3]; 2.5 hours after last dose): 13.2409 ng/mL
Urine concentration ([3]; 2.5 hours after last dose): 12 980 501 pg/ml
Concentration in breast milk ([3]; 8.5 hours after last dose): 0.3594 ng/mL
Breastmilk concentration [3, 5]: 13945.2 pg/mL
Breastmilk concentration [3, 6]: 13240.9 pg/mL
Breastmilk concentration [3, 7]: 359.4 pg/mL
Breastmilk concentration [3, 8]: BLQ
Breastmilk concentration [3, 9]: BLQ
concentration at 24 h ([3]; female, human, breast milk, inhaled): 0.0355 ng/mL
concentration at 2.5 h ([3]; female, human, serum, inhaled): 102 ng/mL
concentration at 24 h ([3]; female, human, serum, inhaled): 0.271 ng/mL
concentration at 120 h ([3]; female, human, serum, inhaled): 0.0671 ng/mL
concentration at 2.5 h ([3]; female, human, urine, inhaled): ~13000 ng/mL
concentration at 8.5 h ([3]; female, human, urine, inhaled): 292 ng/mL
concentration at 24 h ([3]; female, human, urine, inhaled): 18.6 ng/mL
concentration at 120 h ([3]; female, human, urine, inhaled): 9.44 ng/mL
Serum concentration [3, 10]: 263.092 ng/mL
Urine concentration [3, 11]: 12980501 pg/mL

COc1ccc2[nH]cc(CC[N+](C)(C)[O-])c2c1 [5-MeO-DMT-N-oxide]
Relative Proportion of compounds identified (human hepatocytes [1]): 1%

COc1ccc2[nH]cc(CCO)c2c1 [5-methoxytryptophol, 5-Methoxyindole-3-ethanol]
Relative Proportion of compounds identified (human hepatocytes [1]): 25%
Relative LC/MS peak area (human hepatocytes [2]; 1 μM Hepatocytes, 1 h): 79%
Relative LC/MS peak area (human hepatocytes [2]; 1 μM Hepatocytes, 2 h): 57%
Relative LC/MS peak area (human hepatocytes [2]; 1 μM Hepatocytes, 4 h): 33%
Relative LC/MS peak area (human hepatocytes [2]; 1 μM Hepatocytes, 8 h): 10%
Relative LC/MS peak area (human hepatocytes [2]; 1 μM Hepatocytes, 24 h): 0%
Relative LC/MS peak area (human hepatocytes [2]; 1 μM Hepatocytes, 48 h): 0%
Relative LC/MS peak area (human hepatocytes [2]; 1 μM Hepatocytes, 72 h): 0%
Relative LC/MS peak area (human hepatocytes [2]; 1 μM Stromal cells, 4 h): 97%
Relative LC/MS peak area (human hepatocytes [2]; 1 μM Stromal cells, 8 h): 107%
Relative LC/MS peak area (human hepatocytes [2]; 1 μM Stromal cells, 24 h): 94%
Relative LC/MS peak area (human hepatocytes [2]; 1 μM Stromal cells, 48 h): 102%
Relative LC/MS peak area (human hepatocytes [2]; 1 μM Stromal cells, 72 h): 104%
Relative LC/MS peak area (human hepatocytes [2]; 10 μM Hepatocytes, 1 h): 87%
Relative LC/MS peak area (human hepatocytes [2]; 10 μM Hepatocytes, 2 h): 81%
Relative LC/MS peak area (human hepatocytes [2]; 10 μM Hepatocytes, 4 h): 68%
Relative LC/MS peak area (human hepatocytes [2]; 10 μM Hepatocytes, 8 h): 42%
Relative LC/MS peak area (human hepatocytes [2]; 10 μM Hepatocytes, 24 h): 1%
Relative LC/MS peak area (human hepatocytes [2]; 10 μM Hepatocytes, 48 h): 0%
Relative LC/MS peak area (human hepatocytes [2]; 10 μM Hepatocytes, 72 h): 0%
Relative LC/MS peak area (human hepatocytes [2]; 10 μM Stromal cells, 4 h): 99%
Relative LC/MS peak area (human hepatocytes [2]; 10 μM Stromal cells, 8 h): 105%
Relative LC/MS peak area (human hepatocytes [2]; 10 μM Stromal cells, 24 h): 86%
Relative LC/MS peak area (human hepatocytes [2]; 10 μM Stromal cells, 48 h): 98%
Relative LC/MS peak area (human hepatocytes [2]; 10 μM Stromal cells, 72 h): 104%
Half-life (human hepatocytes [2]): 142 min
In vitro intrinsic clearance (human hepatocytes [2]): 16.2 μl/min/million cells
Predicted hepatic extraction ratio (human hepatocytes [2]): 67%
Metabolic turnover (human hepatocytes [2]; in the presence of hepatocytes): high metabolic turnover
Time to complete disappearance (human hepatocytes [2]; in the presence of hepatocytes): ≤ 24 h
Disappearance with stromal cell controls (human hepatocytes [2]): no disappearance

CC(=O)CC(c1ccccc1)c1c(O)c2ccccc2oc1=O (centres unmarked) [Warfarin, reference compound]
Mean % Recovery (human plasma protein): 78.1%
Mean fu (human plasma protein): 0.0377
Unbound fraction (fu), Replicate 1 (human plasma protein): 0.0418
Unbound fraction (fu), Replicate 2 (human plasma protein): 0.0356
Unbound fraction (fu), Replicate 3 (human plasma protein): 0.0358

CN(C)CCc1c[nH]c2ccc(O)cc12 [bufotenine]
Relative Proportion of compounds identified (human hepatocytes [1]): 5%
Detection in breastmilk ([3]; any time point): not detected; also recorded: absence
Detection in serum ([3]; any time point): not detected
Breastmilk concentration [3, 5]: BLQ
Breastmilk concentration [3, 6]: BLQ
Breastmilk concentration [3, 7]: BLQ
Breastmilk concentration ([3]; 24.0 hrs after last dose, second PPD patient, inhaled 5-MeO-DMT, LC-MS/MS): BLQ
Breastmilk concentration [3, 8]: BLQ
Breastmilk concentration [3, 9]: BLQ
Serum concentration [3, 10]: BLQ
Serum concentration ([3]; serum, 2.5 hrs after last dose, second PPD patient, inhaled 5-MeO-DMT, LC-MS/MS): BLQ
Serum concentration ([3]; serum, 24.0 hrs after last dose, second PPD patient, inhaled 5-MeO-DMT, LC-MS/MS): BLQ
Serum concentration ([3]; serum, 120.0 hrs after last dose, second PPD patient, inhaled 5-MeO-DMT, LC-MS/MS): BLQ
Serum concentration ([3]; serum, timepoint −24.0 hrs (pre-dosing), second PPD patient, inhaled 5-MeO-DMT 6 mg then 12 mg, LC-MS/MS): BLQ
Urine concentration [3, 11]: 32.3 pg/mL
Urine concentration ([3]; urine, 8.5 hrs after last dose, second PPD patient, inhaled 5-MeO-DMT, LC-MS/MS): BLQ
Urine concentration ([3]; urine, 24.0 hrs after last dose, second PPD patient, inhaled 5-MeO-DMT, LC-MS/MS): BLQ
Urine concentration ([3]; urine, 120.0 hrs after last dose, second PPD patient, inhaled 5-MeO-DMT, LC-MS/MS): BLQ
Urine concentration ([3]; urine, timepoint −24.0 hrs (pre-dosing), second PPD patient, inhaled 5-MeO-DMT 6 mg then 12 mg, LC-MS/MS): BLQ
